Laboratory results: patent US10072017B2, “Compounds and methods for the treatment of cystic fibrosis” (Flatley Discovery Lab, LLC, priority 2015, dated 2018)

Biological target: T1, CFTR (Homo sapiens, UniProt P13569, DEL508-508)
T1 construct: Primary CF airway epithelial cells were obtained from the UNC Cystic Fibrosis Tissue Procurement and Cell Culture Core; host or cells: primary CF airway epithelial cells
Assay: Equivalent current assay in Primary CF airway epithelial cells (NAUC)
Type: cell-based
Conditions: 24 h, normalized to VX809 (3 μM) positive control; for Nauc @ 3 μM: 3 μM test compound; for Nauc @ 10 μM: 10 μM test compound
Protocol: Primary CF airway epithelial cells were obtained from the UNC Cystic Fibrosis Tissue Procurement and Cell Culture Core. The cells are grown at 37° C. in a Heracell 150i incubator using growth media (BEGM, Fischer). Cells were then transferred to differentiation media (ALI, UNC) for a minimum of 4 weeks on coated Costar snapwells. Two days before the Ussing assay the mucus on the apical surface of the cells was aspirated after incubating with 200 μL of differentiation Media for at least thirty (30) minutes. One day before the Ussing assay test compounds were added to the basolateral surface of the cells at various test concentrations dissolved in DMSO. Duplicate wells were prepared giving a n=3 or n=4 protocol.
Cells were treated for 24 hours with various combinations and concentrations of the test articles, reference standard (3 μM VX809, positive control). Compounds stock solutions were prepared in DMSO and diluted 1/1000 into ALI media to their final assay concentration. Cells were treated with combination solutions (2 mL of each dilution) and incubated at 37° C. for 24 h.
For the equivalent current assay, cells on four Transwell (24-well) plates were treated. Each Transwell plate was filled with 200 μl of HBS on the apical surface and 2 ml on the basolateral surface. Plates were placed horizontally in a heated mount at 37° C., and equilibrated for several minutes. Resting current was measured for 15 min and then blocked by the apical addition of 5 μM benzamil. After 20 min, 10 μM forskolin and 1 μM VX770 were added to both the apical and basolateral side to stimulate CFTR. An increase in chloride current is seen as an upward deflection of the trace. After another 30 min, CFTR-172 (a CFTR inhibitor, 20 μM) and/or bumetanide (20 uM) was added to block CFTR mediated chloride current.
The raw data, current vs. time for the Ussing chamber (sampling interval: 10 s) and voltage vs. time and resistance vs. time for the equivalent current assay (sampling interval: 5 minutes) were transferred to Excel (Microsoft Office Professional, version 14.0.7106.5003) for analysis. CFTR specific current was measured as the average amplitude of the increase in current elicited upon addition forskolin and ending upon addition of the CFTR channel specific blocker CFTR-172. This average is equivalent to the sum of the average forskolin activated and the average VX770-potentiated currents. The average current measured in vehicle (0.1% DMSO) treated cells, Iv, was subtracted from the current for the test article, ITA, or from the corrector reference standard VX809 (3 uM ISTD. For replicate measurements, the average vehicle subtracted response for the test article, was normalized to the average vehicle subtracted inhibitor response of the reference corrector VX809 (3 μM). INSC=(ITA−IV)(ave)/(ISTD−IV)(ave) (Equation 1)
A second endpoint, for the equivalent current assay, evaluated was NAUC, the normalized area under the curve (AUC) measuring the response after addition of forskolin and VX770 to the time point right before the addition of the CFTR inhibitor. The AUC is effectively the average response multiplied by the duration of the response. The AUC of the test article, AUCTA was then corrected by subtracting the average vehicle response, AUCV,ave over the same time range, and normalized as for the inhibitor-sensitive current to the difference of the corrector reference standard VX809 (3 μM VX809r,ave and the vehicle response: NAUCTA=[AUCTA−AUCV,ave]/[AUCVx809r,ave−AUCV,ave] (Equation 2).
The normalized value for DMSO is 0.0 and for VX-809 alone is 1.0. Combinations of compounds with VX-809 that give normalized values greater than 1.0 show activity in the combination assay. A value of 2 means the test compound doubles the effect to VX-809 alone.
Experiments were run with a minimum of n=4 replicates per concentration. […]

T1 sequence (P13569 with tags, fused parts or gaps DEL508-508): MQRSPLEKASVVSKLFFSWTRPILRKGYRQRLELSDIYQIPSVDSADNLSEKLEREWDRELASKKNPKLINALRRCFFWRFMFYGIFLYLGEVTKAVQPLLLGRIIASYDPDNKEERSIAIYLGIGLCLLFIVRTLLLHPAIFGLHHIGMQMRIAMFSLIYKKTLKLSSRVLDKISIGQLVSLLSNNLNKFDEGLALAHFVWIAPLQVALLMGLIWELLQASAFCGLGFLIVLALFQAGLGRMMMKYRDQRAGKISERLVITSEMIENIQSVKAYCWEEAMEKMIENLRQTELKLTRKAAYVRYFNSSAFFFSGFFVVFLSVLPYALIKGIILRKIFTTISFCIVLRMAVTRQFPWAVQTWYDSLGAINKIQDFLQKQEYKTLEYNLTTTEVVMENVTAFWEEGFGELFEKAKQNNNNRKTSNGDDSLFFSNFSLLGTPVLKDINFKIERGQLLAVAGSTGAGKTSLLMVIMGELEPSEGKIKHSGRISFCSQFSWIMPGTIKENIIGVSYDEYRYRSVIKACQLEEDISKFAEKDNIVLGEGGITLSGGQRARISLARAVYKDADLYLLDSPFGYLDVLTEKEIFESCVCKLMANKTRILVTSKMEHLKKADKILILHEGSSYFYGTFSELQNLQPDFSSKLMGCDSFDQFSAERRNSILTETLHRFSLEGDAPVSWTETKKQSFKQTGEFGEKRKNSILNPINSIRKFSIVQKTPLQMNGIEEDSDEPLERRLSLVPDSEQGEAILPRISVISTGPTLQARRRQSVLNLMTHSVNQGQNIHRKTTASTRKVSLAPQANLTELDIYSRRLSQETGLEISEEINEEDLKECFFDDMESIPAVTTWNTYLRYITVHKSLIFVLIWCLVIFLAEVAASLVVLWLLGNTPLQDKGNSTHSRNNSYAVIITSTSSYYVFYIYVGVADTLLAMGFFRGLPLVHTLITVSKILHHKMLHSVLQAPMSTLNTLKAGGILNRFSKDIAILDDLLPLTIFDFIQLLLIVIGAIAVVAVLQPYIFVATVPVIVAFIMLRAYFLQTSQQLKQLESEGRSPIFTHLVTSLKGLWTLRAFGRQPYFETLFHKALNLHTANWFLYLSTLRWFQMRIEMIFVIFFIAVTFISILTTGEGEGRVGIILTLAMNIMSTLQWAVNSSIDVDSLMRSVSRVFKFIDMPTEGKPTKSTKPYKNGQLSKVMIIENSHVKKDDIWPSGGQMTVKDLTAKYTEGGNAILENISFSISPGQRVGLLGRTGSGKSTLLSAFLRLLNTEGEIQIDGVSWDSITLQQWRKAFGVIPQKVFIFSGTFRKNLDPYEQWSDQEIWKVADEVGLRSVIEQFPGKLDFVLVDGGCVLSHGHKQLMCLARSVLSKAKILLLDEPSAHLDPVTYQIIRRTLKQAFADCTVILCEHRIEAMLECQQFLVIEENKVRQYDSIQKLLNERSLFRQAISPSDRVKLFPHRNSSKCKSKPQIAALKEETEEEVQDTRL

Row | Structure (SMILES) | Nauc @ 3 μM | Nauc @ 10 μM
1 | O=C1C2C3CC(F)(F)CN3C3(C(=O)Nc4c(Cl)cc(Cl)cc43)C2C(=O)N1c1cc(Cl)cc(Cl)c1 (single isomer, unassigned) [Example 179] | +++ (NAUC “+++” refers to an observed NAUC >170% of positive control) | +++ (NAUC “+++” refers to an observed NAUC >170% of positive control)
2 | COc1cc(Cl)cc(N2C(=O)C3C4CC(=C(F)F)CN4C4(C(=O)Nc5c(Cl)cc(Cl)cc54)C3C2=O)c1 (centres unmarked) [Example 117] | +++ (NAUC “+++” refers to an observed NAUC >170% of positive control) | +++ (NAUC “+++” refers to an observed NAUC >170% of positive control)
3 | O=C1C2C3CC(=C(F)F)CN3C3(C(=O)Nc4c(Cl)cc(Cl)cc43)C2C(=O)N1c1cc(Cl)cc(Cl)c1 (centres unmarked) [Example 100] | +++ (NAUC “+++” refers to an observed NAUC >170% of positive control) | +++ (NAUC “+++” refers to an observed NAUC >170% of positive control)
4 | N=C(N)NCCCC1NC2(C(=O)Nc3c(Cl)cc(Cl)cc32)C2C(=O)N(c3cc(Cl)cc(Cl)c3)C(=O)C12 (centres unmarked) [Example 163] | ++ (NAUC “++” refers to an observed NAUC 170-140% of positive control) | + (NAUC “+” refers to an observed NAUC <140% of positive control)
5 | O=C1C2C(C3CCCCC3)NC3(C(=O)Nc4c(Cl)cc(Cl)cc43)C2C(=O)N1c1cc(Cl)cc(Cl)c1 (centres unmarked) [Example 208] | ++ (NAUC “++” refers to an observed NAUC 170-140% of positive control) | + (NAUC “+” refers to an observed NAUC <140% of positive control)
6 | O=C1C2C3CCCN3C3(C(=O)Nc4c(Cl)cccc43)C2C(=O)N1c1cc(Cl)cc(Cl)c1 (centres unmarked) [Example 75] | ++ (NAUC “++” refers to an observed NAUC 170-140% of positive control) | + (NAUC “+” refers to an observed NAUC <140% of positive control)
7 | CC(C)C1NC2(C(=O)Nc3c(Cl)cc(Cl)cc32)C2C(=O)N(c3cc(Cl)cc(Cl)c3)C(=O)C12 (centres unmarked) [Example 17] | + (NAUC “+” refers to an observed NAUC <140% of positive control) | ++ (NAUC “++” refers to an observed NAUC 170-140% of positive control)
8 | CC(=O)Oc1c(Cl)cc(Cl)cc1N1C(=O)C2C3C[C@H](O)CN3C3(C(=O)Nc4c(Cl)cc(Cl)cc43)C2C1=O (some centres unmarked) [Example 91] | + (NAUC “+” refers to an observed NAUC <140% of positive control) | +++ (NAUC “+++” refers to an observed NAUC >170% of positive control)
9 | CC1CC2C3C(=O)N(c4cc(Cl)cc(Cl)c4)C(=O)C3C3(C(=O)Nc4c(Cl)cc(Cl)cc43)N2C1 (centres unmarked) [Example 71] | + (NAUC “+” refers to an observed NAUC <140% of positive control) | +++ (NAUC “+++” refers to an observed NAUC >170% of positive control)
10 | COc1c(Cl)cc(N2C(=O)C3C4CC(C)(C)CN4C4(C(=O)Nc5c(Cl)cc(Cl)cc54)C3C2=O)cc1Cl (single isomer, unassigned) [Example 4, 5,7-dichloro-2′-(3,5-dichloro-4-methoxyphenyl)-7′,7′-dimethyl-3a′,6′,7′,8′,8a′,8b′-hexahydro-1′H-spiro[indoline-3,4′-pyrrolo[3,4-a]pyrrolizine]-1′,2,3′(2′H)-trione] | +++ (NAUC “+++” refers to an observed NAUC >170% of positive control) | ++ (NAUC “++” refers to an observed NAUC 170-140% of positive control)
11 | O=C1C2C3C[C@H](O)CN3C3(C(=O)Nc4ccc(C(F)(F)F)cc43)C2C(=O)N1c1cc(Cl)cc(Cl)c1 (single isomer, unassigned) [Example 61] | +++ (NAUC “+++” refers to an observed NAUC >170% of positive control) | +++ (NAUC “+++” refers to an observed NAUC >170% of positive control)
12 | O=C1C2C3CC(C(F)F)CN3C3(C(=O)Nc4c(Cl)cc(Cl)cc43)C2C(=O)N1c1cc(Cl)cc(Cl)c1 (centres unmarked) [Example 136] | +++ (NAUC “+++” refers to an observed NAUC >170% of positive control) | +++ (NAUC “+++” refers to an observed NAUC >170% of positive control)
13 | C[C@]1(F)CC2C3C(=O)N(c4cc(Cl)cc(Cl)n4)C(=O)C3C3(C(=O)Nc4c(Cl)cc(Cl)cc43)N2C1 (some centres unmarked) [Example 231] | + (NAUC “+” refers to an observed NAUC <140% of positive control) | +++ (NAUC “+++” refers to an observed NAUC >170% of positive control)
14 | O=C1[C@H]2[C@H]3C[C@H](O)CN3[C@]3(C(=O)Nc4c(Cl)cc(Cl)cc43)[C@H]2C(=O)N1c1cc(Cl)cc(Cl)c1 (single isomer, unassigned) [Example 2] | +++ (NAUC “+++” refers to an observed NAUC >170% of positive control) | +++ (NAUC “+++” refers to an observed NAUC >170% of positive control)
15 | [2H]C12C(=O)N(c3cc(Cl)cc(OC)c3)C(=O)C1([2H])C1(C(=O)Nc3c(Cl)cc(Cl)cc31)N1C[C@@H](Cl)CC12 (some centres unmarked) [Example 146] | +++ (NAUC “+++” refers to an observed NAUC >170% of positive control) | +++ (NAUC “+++” refers to an observed NAUC >170% of positive control)
16 | O=C1C2C3C[C@H](F)CN3C3(C(=O)Nc4c(Cl)cc(Cl)cc43)C2C(=O)N1c1cc(O)cc(Cl)c1 (some centres unmarked) [Example 80] | ++ (NAUC “++” refers to an observed NAUC 170-140% of positive control) | ++ (NAUC “++” refers to an observed NAUC 170-140% of positive control)
17 | O=C1C2C3CCCN3C3(C(=O)Nc4c(Cl)cc(Cl)cc43)C2C(=O)N1c1cccc(F)n1 (centres unmarked) [Example 227] | + (NAUC “+” refers to an observed NAUC <140% of positive control) | ++ (NAUC “++” refers to an observed NAUC 170-140% of positive control)
18 | C[C@]1(O)CC2C3C(=O)N(c4ccon4)C(=O)C3C3(C(=O)Nc4c(Cl)cc(Cl)cc43)N2C1 (some centres unmarked) [Example 234] | + (NAUC “+” refers to an observed NAUC <140% of positive control) | ++ (NAUC “++” refers to an observed NAUC 170-140% of positive control)
19 | [2H]C12C(=O)N(c3cc(Cl)cc(Cl)c3)C(=O)C1([2H])C1(C(=O)Nc3c(Cl)cc(Cl)cc31)N1C[C@@H](O)CC12 (single isomer, unassigned) [Example 5, (7′S)-5,7-Dichloro-2′-(3,5-dichlorophenyl)-7′-hydroxy-3a′,6′,7′,8′,8a′,8b′-hexahydro-1′H-spiro[indoline-3,4′-pyrrolo[3,4-a]pyrrolizine]-1′,2,3′(2′H)-trione-3a′,8b′-d2] | +++ (NAUC “+++” refers to an observed NAUC >170% of positive control) | +++ (NAUC “+++” refers to an observed NAUC >170% of positive control)
20 | COc1cc(Cl)cc(N2C(=O)C3C4CCCN4C4(C(=O)Nc5c(Cl)cc(Cl)cc54)C3C2=O)c1 (single isomer, unassigned) [Example 106] | +++ (NAUC “+++” refers to an observed NAUC >170% of positive control) | +++ (NAUC “+++” refers to an observed NAUC >170% of positive control)
21 | COc1c(Cl)cc(N2C(=O)C3C4CC(=C(F)F)CN4C4(C(=O)Nc5c(Cl)cc(Cl)cc54)C3C2=O)cc1Cl (centres unmarked) [Example 121] | ++ (NAUC “++” refers to an observed NAUC 170-140% of positive control) | ++ (NAUC “++” refers to an observed NAUC 170-140% of positive control)
22 | O=C1C2C3C[C@H](Cl)CN3C3(C(=O)Nc4c(Cl)cc(Cl)cc43)C2C(=O)N1c1cc(O)cc(Cl)c1 (some centres unmarked) [Example 81] | + (NAUC “+” refers to an observed NAUC <140% of positive control) | ++ (NAUC “++” refers to an observed NAUC 170-140% of positive control)
